Experimental data from a melting point compilation (Tetko et al.; mined from patent text by program, amines drawn as free bases though some values may be those of a salt).

| Compound | melting point [°C] |
| --- | --- |
| N#Cc1nn(-c2c(Cl)cc(C(F)(F)F)cc2Cl)c(N)c1-c1cccc(F)c1 | 164 |
| CCCOc1ccc(COCCO)cc1-c1nc2c(CCC)nn(C)c2c(=O)[nH]1 | 101 to 102 |
| CS(=O)c1nnc(-c2ccccc2NC(=O)c2cccc(C(F)(F)F)c2)s1 (configuration not stated) | 125 to 126 |
| CCOC(=O)C1(C(=O)OCC)CCC2(NCCc3cc(OC)c(OC)cc32)C(C2c3cc(OC)c(OC)cc3CCN2C(C)=O)C1 (configuration not stated) | 146 to 149 |
| COC(=O)[C@H]1Cc2c([nH]c3ccccc23)[C@@H](c2ccc3c(c2)OCO3)N1C(=O)C(C)Cl (some centres not stated) | 125 to 127 |
| CNC(=O)N(Cc1ccc(OCCc2nc(-c3ccccc3)oc2C)cc1)OC(=O)OC | 134 to 135 |
| Cc1c(-c2ccccc2)nc(C(C)C)c(CO)c1-c1ccc(F)cc1 | 182 to 184 |
| CC(C)C(C#N)Nc1ccc(C(F)(F)F)cc1 (configuration not stated) | 64.5 to 67 |
| Cn1c2c(c3ccccc31)C(=O)C(CNC1=NCCN1)CS2 (configuration not stated) | 245 to 247 |
| C#Cc1cc2cn[nH]c2c(C(=O)NC2(C3CC3)CC2)c1NC(=O)c1cc(C(F)(F)F)nn1-c1ncccc1Cl | 246 to 248 |
| CCOC(=O)c1cn(-c2nc(NC)c(F)cc2F)c2c(Cl)c(F)c(F)cc2c1=O | 207 to 209 |
| CCCOc1nc2ccc(Br)cc2c(=O)n1CCC | 57 to 59 |
| CON(C(=O)c1cn(C)nc1C(F)(F)F)C(CF)Cc1c(Cl)cc(Cl)cc1Cl (configuration not stated) | 131 to 133 |
| CCOC(=O)C1CC(=O)c2cc(C(C)(C)C)cc(C(C)(C)C)c2O1 (configuration not stated) | 61 to 63 |
| CC(C)c1cc(C(=O)NCc2ccccc2)c(N)s1 | 170 to 172 |
| CC(=O)Nc1cccc2c1SC(C)C2 (configuration not stated) | 125 to 127 |
| Cc1ccc(C2=Cc3cc(C(=O)Nc4ccc(CN(C)C5CCOCC5)cc4)ccc3OC2)cc1 | 230 to 235 |
| C=CCCCOc1ccc(-c2ccc([N+](=O)[O-])cc2)cc1 | 74 to 76 |
| CS(=O)(=O)C(=C1CN(C(c2ccccc2)c2ccccc2)C1)c1cccc(C(N)=O)c1 | 140 |
| COC(=O)c1cc(-c2ccc(F)c(C)c2)nn(Cc2ccccc2)c1=O | 109 to 110 |
| CCC1CCC(c2ccc(-c3cc(F)c(C(F)(F)Oc4cc(F)c(C(F)(F)F)c(F)c4)c(F)c3)c(F)c2)CC1 (configuration not stated) | 77 |
| Cc1c(C(=O)Nc2ccc(N3CCN(CCCc4cccnc4)CC3)c(C#N)c2)cnn1-c1ccc(Cl)cc1 | 201 to 203 |
| O=S(=O)(C(=CNc1ccccn1)c1ccccc1)c1ccccc1 | 159 to 160 |
| Cc1ccnc(NC(=O)c2ccn3c2CSC3c2cccnc2)c1 (configuration not stated) | 163 |
| CN(C)c1ccc(C(=O)c2ccccc2)cc1NC(=O)c1ccn2c1CSC2c1cccnc1 (configuration not stated) | 186 |

| Compound | melting point [°C] |
| --- | --- |
| CCOC(=O)CC(=O)Nc1cccc(F)c1CO | 91 |
| COc1ccc2nc(N3CCN(C[C@H]4COc5ccc6nc(C)ccc6c5O4)CC3)ccc2c1 | 95 to 97 |
| CC(=O)Nc1cc(C)cc(N)c1 | 123 |
| CN(C[C@H](O)c1cccc(OCC(=O)O)c1)c1cnc(-c2ccccc2)c(-c2ccccc2)n1 | 158 to 159 |
| CC(C)(C)c1cc(CCC(=O)NCCNCCNCCNC(=O)CCc2cc(C(C)(C)C)c(O)c(C(C)(C)C)c2)cc(C(C)(C)C)c1O | 80 to 110 |
| CCOC(=O)C1Cc2sc(N)c(C(=O)c3ccccc3Cl)c2C1 (configuration not stated) | 121 to 122 |
| CC(Br)c1ccc2occ(C#N)c(=O)c2c1 (configuration not stated) | 162 to 164 |
| N#CC(c1ccccc1)(c1ccccc1)n1ccnc1 | 95 to 98 |
| O=C1CN[C@@H](c2ccccc2)[C@@H](c2ccccc2)O1 | 139 |
| Cc1ccc(C(=O)c2ccccc2Cl)n1N | 84 to 85 |
| CN(CCCNc1ncc(Cc2ccc(F)cc2)c(=O)[nH]1)c1ccccn1 | 70 |
| O=C1c2ccccc2C(=O)N1CCCS(=O)(=O)c1ccccc1 | 126 to 127 |
| CC(C)(CO)Nc1nc(-c2ccc(C#N)c(F)c2)cs1 | 128 to 130 |
| CC(C)(Cc1ccc(Cl)cc1Cl)C(O)(Cn1cncn1)Cn1cncn1 | 126 |
| CON=C(C(=O)O)c1csc(=N)n1O | 209 to 210 |
| NC(=O)[C@@H]1[C@H](Nc2c(Br)cnc3[nH]c(-c4cccnc4N4CCOCC4)nc23)[C@H]2C=C[C@@H]1C2 | 150 |
| CC(C)(C)[C@H]1CC[C@H](CC2=C(O)C(=O)c3ccccc3C2=O)CC1 | 180 to 182 |
| C=C1CCN(S(=O)(=O)c2ccc(Cl)c(C(=O)O)c2)CC1 | 157 to 160 |
| Cc1ccc(-c2c(CNC(=O)OC(C)(C)C)n(CC(C)C)c(=O)c3ccc(O)cc23)cc1 | 233 to 234 |
| O=Cc1c2ccc(F)cc2c(C=O)c2ccc(F)cc12 | 240 to 242 |
| COC(=O)C1Cc2c([nH]c3ccccc23)C(C)N1C(=S)SC (configuration not stated) | 229 to 230 |
| Cc1ncc([N+](=O)[O-])n1CCOC(=O)Cc1ccccc1Nc1c(Cl)cccc1Cl | 122 to 124 |
| Cc1ccc(OCc2sccc2S(=O)(=O)Nc2onc(C)c2Br)cc1 | 128 to 130 |
| O=C(NCc1ccccc1)C1Cc2cc(Br)cc3[nH]c(=O)c(=O)n1c23 (configuration not stated) | 152 to 153 |
| CN(C)c1cc(C(=O)CS(C)(=O)=O)cc(N(C)C)c1 | 151 to 153 |

| Compound | melting point [°C] |
| --- | --- |
| COc1cc(Nc2c(C#N)cnc3c2sc2ccccc23)c(Cl)cc1Cl | 234 to 236 |
| CCN(CC)C1CCCCN(CC(=O)N2c3ccccc3C(=O)Nc3cccnc32)C1 (configuration not stated) | 222 to 224 |
| CS(=O)(=O)c1ccc(-c2c(-c3ccccc3)nc3sccn23)cc1 | 190 to 192 |
| CCOC(=O)CCCNC(=O)Cn1c(-c2ccc(Cl)cc2)nc2cccnc21 | 169 to 171 |
| Cc1cccnc1COc1nn2c(-c3ccccc3)nnc2cc1N1CCCCC1 | 160 |
| Fc1ccc(Cn2c(SC3CCNCC3)nc3cncnc32)cc1 | 114 |
| N#Cc1ccccc1N1CCN(CC(=O)Nc2ccccc2)CC1 | 137 to 138 |
| CC(C)(C)OC(=O)Nc1ccc(Cl)c(C(F)(F)F)c1 | 90 |
| Cc1c(C)c2c(c(C)c1O)C(c1ccc(C(C)C)cc1)C1(CCN(C)CC1)O2 (configuration not stated) | 114 to 117 |
| CCOC(=O)C=Cc1ccc(Oc2nsnc(Cl)c2=O)cc1 | 126 to 128 |
| Cn1cc(/C=C/c2ccc3ccccc3n2)cc1C(=O)O | > 230 |
| CC1(C)C2CC=C(c3ccc(C(=O)N4Cc5cccn5Cc5ccccc54)cc3)C1C2 (configuration not stated) | 118 to 119 |
| COc1ccc(Oc2cc3c(cc2Cl)C=C(C(=O)O)C(C(F)(F)F)O3)cc1 (configuration not stated) | 213 to 214 |
| CC(C)Cn1c(CNC(=O)OC(C)(C)C)c(-c2ccccc2)c2cc(C(N)=S)ccc2c1=O | 228 to 229 |
| CCN(CC)CC(=O)Nc1ccc(C2=NN(C(C)=O)C(C)Cc3cc4c(cc32)OCO4)cc1 (configuration not stated) | 175 to 176 |
| O=C(O)CCC(=O)c1ccc2oc3ccccc3c2c1 | 186 to 188 |
| C[C@H](COS(C)(=O)=O)N1C(=O)c2ccccc2C1=O | 75 to 77 |
| O=C1C(c2cc3c(cc2O)OCC3)c2cc(F)ccc2N1C(c1ccccc1)c1ccccc1 (configuration not stated) | 179 to 181 |
| CCCCCCCCC(c1ccccc1)S(=O)(=O)NC(=O)Nc1c(C(C)C)cccc1C(C)C (configuration not stated) | 145 to 146 |
| CC(C)(C)n1c(=O)c(=O)[nH]c2ccccc21 | > 300 |
| C=C(C)COc1ccc2c(C)cc(=O)oc2c1C(=O)C=Cc1cc(OC)c(OC)c(OC)c1 | 128 to 130 |
| O=C(c1cc(Br)cc(Br)c1O)c1cc(Br)cc(Br)c1O | 179 |
| O=C1NC(C(=O)N2CCN3C(=O)OC(c4ccccc4)(c4ccccc4)C3C2)c2ccccc21 (configuration not stated) | 227 to 228 |
| C=C(c1ccc(C(=O)O)cc1)C(O)(Cn1cncn1)c1ccc(F)cc1F (configuration not stated) | 189 to 190 |
| COc1ccc(-c2oncc2CCCO)cc1OC | 55 to 56 |

| Compound | melting point [°C] |
| --- | --- |
| Cc1ncsc1C(=O)Nc1cnc(-n2nc(C(F)(F)F)cc2C2CC2)nc1 | 148 to 152 |
| O=C(O)c1ccc(CCCC2SCC(=O)N2CCC2(O)CCSCC2)cc1 (configuration not stated) | 157 to 158 |
| COC1CCC(=O)N1S(=O)(=O)C=Cc1ccccc1 (configuration not stated) | 98 to 99 |
| CCn1c(=O)c2[nH]c(/C=C/c3ccc(O)cc3)nc2n(CC)c1=O | > 270 |
| O=c1cc(O)n(-c2cccc(C(F)(F)F)c2)nc1-c1ccnn1-c1ccccc1 | 241 to 243 |
| OCCc1nc(NCc2ccccn2)c2c(-c3ccccc3)csc2n1 | 90 to 92 |
| CCCOc1ccccc1-c1nc(-c2nnn[nH]2)cc(=O)[nH]1 | 219 to 221 |
| Cc1nc2c(N)nc3c(c2n1CCOCCCc1cccnc1)CCCC3 | 140 to 141 |
| Cc1ccc(C2(CCC(=O)O)NC(=O)NC2=O)cc1Cl (configuration not stated) | 196 to 199 |
| N#CC(C#N)(OC(=O)c1ccc(Cl)c(Cl)c1)c1ccc(Cl)c(Cl)c1 | 110 |
| Cc1cc(C=O)ccc1-c1ccccc1C(F)(F)F | 127 to 130 |
| CCCOc1ccc(S(C)(=O)=O)cc1-c1nc2c(CC)nn(C[C@@H]3CCCN3C)c2c(=O)[nH]1 | 211 to 215 |
| CCOc1cc(C(F)(F)F)sc1C(=O)O | 144 |
| CCn1cc(C(=O)O)c(=O)c2cnc(N3CCN(Cc4ccccc4)CC3)nc21 | 207 |
| CC(O)c1cccc(Nc2ccccc2C(=O)O)c1Cl (configuration not stated) | 169 to 171 |
| Cc1cc(=O)n2cccc(O)c2n1 | 144 to 145 |
| CCC(CNC(=S)Nc1cccc(-c2c[nH]cn2)c1)N(Cc1ccc(Cl)c(Cl)c1)c1ccc(Br)cn1 (configuration not stated) | 140 to 160 |
| CN1CCN(c2cccc3c2C[C@H](NC(=O)c2ccc(C(=O)N4CCOCC4)cc2)CO3)CC1 | 222 |
| COc1cc(O)ccc1-c1cnc2cnc(-c3ccc(O)cc3)nc2c1 | 207 to 208 |
| Cc1ccc(CN2C(=O)C(C)Oc3c(C(=O)NC4CN5CCC4CC5)cc(Cl)cc32)cc1 (configuration not stated) | 156 |
| COc1ccc(-c2cncn2-c2ccc(S(=O)(=O)NC(C)(C)C)cc2)cc1F | 229 to 232 |
| Cc1ccc(CN2CCN(C(=O)OC(C)(C)C)CC2)cc1 | 61 to 62 |
